Measured values from PubChem BioAssay (NCI).
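1) Cells in 96-well plates. 2) Compound, 48 h, 5 concentrations. 3) Linear interpolation between surrounding doses. 4) Unreached endpoint = highest concentration. GI50 is the concentration that inhibits growth by half. TGI denotes the concentration required for complete inhibition of growth.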

Experiments:
Experiment in all cases: inhibition of tumour cell growth, NCI panel, 48 h
786-0 renal = tested on: 786-0 renal
A498 renal = tested on: A498 renal
A549 NSCLC = tested on: A549 NSCLC
ACHN renal = tested on: ACHN renal
BT-549 breast = tested on: BT-549 breast
CAKI-1 renal = tested on: CAKI-1 renal
CCRF-CEM leukemia = tested on: CCRF-CEM leukemia
COLO 205 colon = tested on: COLO 205 colon
DU-145 prostate = tested on: DU-145 prostate
EKVX NSCLC = tested on: EKVX NSCLC
HCC-2998 colon = tested on: HCC-2998 colon
HCT-116 colon = tested on: HCT-116 colon
HCT-15 colon = tested on: HCT-15 colon
HL-60(TB) leukemia = tested on: HL-60(TB) leukemia
HOP-62 NSCLC = tested on: HOP-62 NSCLC
HOP-92 NSCLC = tested on: HOP-92 NSCLC
HS 578T breast = tested on: HS 578T breast
HT29 colon = tested on: HT29 colon
IGROV1 ovarian = tested on: IGROV1 ovarian
K-562 leukemia = tested on: K-562 leukemia
KM12 colon = tested on: KM12 colon
M14 melanoma = tested on: M14 melanoma
MALME-3M melanoma = tested on: MALME-3M melanoma
MCF7 breast = tested on: MCF7 breast
MDA-MB-231 breast = tested on: MDA-MB-231 breast
MDA-MB-435 = tested on: MDA-MB-435
MOLT-4 leukemia = tested on: MOLT-4 leukemia
NCI-H226 lung = tested on: NCI-H226 lung
NCI-H23 lung = tested on: NCI-H23 lung
NCI-H460 lung = tested on: NCI-H460 lung
NCI-H522 lung = tested on: NCI-H522 lung
NCI/ADR-RES ovarian = tested on: NCI/ADR-RES ovarian
OVCAR-4 ovarian = tested on: OVCAR-4 ovarian
OVCAR-5 ovarian = tested on: OVCAR-5 ovarian
OVCAR-8 ovarian = tested on: OVCAR-8 ovarian
PC-3 prostate = tested on: PC-3 prostate
RPMI-8226 leukemia = tested on: RPMI-8226 leukemia
RXF 393 renal = tested on: RXF 393 renal
SF-268 CNS = tested on: SF-268 CNS
SF-295 CNS = tested on: SF-295 CNS
SF-539 CNS = tested on: SF-539 CNS
SK-MEL-2 melanoma = tested on: SK-MEL-2 melanoma
SK-MEL-28 melanoma = tested on: SK-MEL-28 melanoma
SK-MEL-5 melanoma = tested on: SK-MEL-5 melanoma
SK-OV-3 ovarian = tested on: SK-OV-3 ovarian
SN12C renal = tested on: SN12C renal
SNB-19 CNS = tested on: SNB-19 CNS
SNB-75 CNS = tested on: SNB-75 CNS
SR leukemia = tested on: SR leukemia
SW-620 colon = tested on: SW-620 colon
T-47D breast = tested on: T-47D breast
TK-10 renal = tested on: TK-10 renal
U251 CNS = tested on: U251 CNS
UACC-257 melanoma = tested on: UACC-257 melanoma
UACC-62 melanoma = tested on: UACC-62 melanoma
UO-31 renal = tested on: UO-31 renal

## O=C(c1ccc(Oc2ccccc2)cc1Cl)c1c[nH]c2ncnc(N[C@@H]3CC[C@@H](CO)OC3)c12
786-0 renal
  GI50: 1.58 µM
  TGI: 9.35 µM
A498 renal
  GI50: 0.295 µM
  TGI: 1.28 µM
A549 NSCLC
  GI50: 0.724 µM
  TGI: 9.92 µM
ACHN renal
  GI50: 0.26 µM
  TGI: 10.5 µM
BT-549 breast
  GI50: 1.66 µM
  TGI: 4.17 µM
CAKI-1 renal
  GI50: 0.398 µM
  TGI: 5.36 µM
CCRF-CEM leukemia
  GI50: 3.21 µM
  TGI: 20.9 µM
COLO 205 colon
  GI50: 0.0311 µM
  TGI: 0.351 µM
DU-145 prostate
  GI50: 0.688 µM
  TGI: 6.96 µM
EKVX NSCLC
  GI50: 0.641 µM
  TGI: 9.42 µM
HCC-2998 colon
  GI50: 0.199 µM
  TGI: 5.56 µM
HCT-116 colon
  GI50: 0.244 µM
  TGI: 1.42 µM
HCT-15 colon
  GI50: 0.885 µM
  TGI: 10.8 µM
HL-60(TB) leukemia
  GI50: 0.2 µM
  TGI: 1.97 µM
HOP-62 NSCLC
  GI50: 0.302 µM
  TGI: 11 µM
HOP-92 NSCLC
  GI50: 0.0745 µM
  TGI: 0.488 µM
HS 578T breast
  GI50: 1.59 µM
  TGI: 5.01 µM
HT29 colon
  GI50: 0.0434 µM
  TGI: 1.47 µM
IGROV1 ovarian
  GI50: 0.0842 µM
  TGI: 1.96 µM
K-562 leukemia
  GI50: 0.432 µM
  TGI: > 36.3 µM
KM12 colon
  GI50: 0.0377 µM
  TGI: 2.61 µM
M14 melanoma
  GI50: 0.0213 µM
  TGI: 0.222 µM
MALME-3M melanoma
  GI50: 0.0161 µM
  TGI: 0.0745 µM
MCF7 breast
  GI50: 1.47 µM
  TGI: 13 µM
MDA-MB-231 breast
  GI50: 0.32 µM
  TGI: 1.74 µM
MDA-MB-435
  GI50: 0.109 µM
  TGI: 10.8 µM
MOLT-4 leukemia
  GI50: 1.51 µM
  TGI: 8.99 µM
NCI-H226 lung
  GI50: 1.47 µM
  TGI: 23.6 µM
NCI-H23 lung
  GI50: 0.703 µM
  TGI: 13.7 µM
NCI-H460 lung
  GI50: 2.51 µM
  TGI: 10.7 µM
NCI-H522 lung
  GI50: 0.437 µM
  TGI: 5.09 µM
NCI/ADR-RES ovarian
  GI50: 2.3 µM
  TGI: 10.7 µM
OVCAR-4 ovarian
  GI50: 5.02 µM
  TGI: 23 µM
OVCAR-5 ovarian
  GI50: 0.255 µM
  TGI: 2.75 µM
OVCAR-8 ovarian
  GI50: 1.33 µM
  TGI: 11.2 µM
PC-3 prostate
  GI50: 3.16 µM
  TGI: 13.5 µM
RPMI-8226 leukemia
  GI50: 1.76 µM
  TGI: 9.53 µM
RXF 393 renal
  GI50: 0.748 µM
  TGI: 2.77 µM
SF-268 CNS
  GI50: 1.41 µM
  TGI: 16.3 µM
SF-295 CNS
  GI50: 2.45 µM
  TGI: 15.3 µM
SF-539 CNS
  GI50: 1.36 µM
  TGI: 4.85 µM
SK-MEL-2 melanoma
  GI50: 0.229 µM
  TGI: 0.876 µM
SK-MEL-28 melanoma
  GI50: 0.035 µM
  TGI: 0.465 µM
SK-MEL-5 melanoma
  GI50: 0.771 µM
  TGI: 3.56 µM
SK-OV-3 ovarian
  GI50: 0.351 µM
  TGI: 2.09 µM
SN12C renal
  GI50: 0.413 µM
  TGI: 11.4 µM
SNB-19 CNS
  GI50: 1.81 µM
  TGI: 15.3 µM
SNB-75 CNS
  GI50: 1.11 µM
  TGI: 3.27 µM
SR leukemia
  GI50: 2.63 µM
  TGI: 19.6 µM
SW-620 colon
  GI50: 0.397 µM
  TGI: 11.6 µM
T-47D breast
  GI50: 0.908 µM
  TGI: 6.83 µM
TK-10 renal
  GI50: 0.231 µM
  TGI: 1.67 µM
U251 CNS
  GI50: 1.2 µM
  TGI: 14.1 µM
UACC-257 melanoma
  GI50: 0.0389 µM
  TGI: 0.395 µM
UACC-62 melanoma
  GI50: 0.0209 µM
  TGI: 0.173 µM
UO-31 renal
  GI50: 0.479 µM
  TGI: 5.56 µM
